Test results as given in patent US7799820B2, “2-Heterocycle-substituted indole derivatives for treating diabetes and associated conditions” (Banyu Pharmaceutical Co., Ltd., priority 2005, dated 2010).

Biological target: T1, recombinant human liver GK (Homo sapiens, UniProt P35557)
T1 construct: made in house; host or cells: E. coli
T1 sequence (P35557 1-466 isoform P35557-2): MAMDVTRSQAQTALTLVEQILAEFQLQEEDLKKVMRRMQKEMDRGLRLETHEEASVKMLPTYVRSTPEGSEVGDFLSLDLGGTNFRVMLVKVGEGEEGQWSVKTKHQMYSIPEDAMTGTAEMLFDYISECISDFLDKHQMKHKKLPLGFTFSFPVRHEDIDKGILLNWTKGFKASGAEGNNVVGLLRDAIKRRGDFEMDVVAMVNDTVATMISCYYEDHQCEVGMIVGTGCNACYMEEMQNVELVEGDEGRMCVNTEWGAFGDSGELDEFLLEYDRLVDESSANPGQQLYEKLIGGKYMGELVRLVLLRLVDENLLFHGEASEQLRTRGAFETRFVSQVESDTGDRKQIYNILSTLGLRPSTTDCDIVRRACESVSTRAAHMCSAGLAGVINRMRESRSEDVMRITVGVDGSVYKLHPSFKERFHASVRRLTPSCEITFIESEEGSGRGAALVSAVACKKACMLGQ
Experiment: glucokinase activation assay (Thio-NADH, G6PDH-coupled)
Type: biochemical
Conditions: final glucose concentration 2.5 mM; 30° C.
Excerpt: The excellent glucokinase-activating effect of the compounds of formula (I) may be determined by a method described in literature (e.g., Diabetes, Vol. 45, pp. 1671-1677, 1996), or in accordance with it.
The glucokinase activity may be determined not by directly measuring glucose-6-phosphate but by measuring the level of Thio-NADH, which is produced when a reporter enzyme, glucose-6-phosphate dehydrogenase produces phosphogluconolactone from glucose-6-phosphate, and based on that level, the level of glucokinase activation may be determined.
In this assay, used was a recombinant human liver GK, which was expressed by E. coli as a FLAG fusion protein therein and was purified by ANTIFLAG M2 AFFINITY GEL (Sigma).
Using a flat-bottomed 96-well plate, the assay was carried out at 30° C. 69 μl of an assay buffer (25 mM Hepes Buffer, pH=7.2, 2 mM MgCl2, 1 mM ATP, 0.5 mM TNAD, 1 mM dithiothreitol) was put into the plate, and 1 μl of a DMSO solution of the compound or DMSO alone as a control was added thereto. Next, 20 μl of an enzyme mixture (FLAG-GK, 20 U/ml G6PDH) cooled in ice was added to it, and 10 μl of a substrate, 25 mM glucose was added to it, and the reaction was initiated (final glucose concentration=2.5 mM).
After the start of the reaction, the increase in the absorbance at 405 nm was measured for 12 minutes at intervals of 30 seconds, and the increase for the first 5 minutes was used for evaluating the compound tested. FLAG-GK was added so that the absorbance increase after 5 minutes in the presence of 1% DMSO could be from 0.04 to 0.06.
The OD level of the DMSO control was set as 100%; and the OD level of the test compound at different concentrations was determined. From the OD level at each concentration, Emax (%) and EC50 (μM) were computed and used as the index of the GK-activating potency of the compound.

EC50 [µM] | Compound
0.07 | CS(=O)(=O)c1ccc(Oc2cc3cc(-c4ccccn4)[nH]c3cc2CN2CCCC2=O)cn1 [Example 3, 1-[(5-([6-(Methylsulfonyl)pyridin-3-yl]oxy)-2-pyridin-2-yl-1H-indol-6-yl)methyl]p-pyrrolidin-2-one]
0.18 | CCS(=O)(=O)c1ccc(Oc2cc3cc(-c4ccccn4)[nH]c3cc2Oc2cccnc2OC(F)F)cn1 [Example 2, 6-([2-(Difluoromethoxy)pyridin-3-yl]oxy)-5-([6-(ethylsulfonyl)pyridin-3-yl]oxy)-2-pyridin-2-yl-1H-indole]
0.05 | Cc1nc(-c2ccc(Oc3cc4cc(-c5ccccn5)[nH]c4cc3CN3CCCC3=O)cn2)no1 [Example 6, 1-[(5-([6-(5-Methyl-1,2,4-oxadiazol-3-yl)pyridin-3-yl]oxy)-2-pyridin-2-yl-1H-indol-6-yl)methyl]pyrrolidin-2-one]
